Measurements from US12520840B2, “Method for reducing parasite burden in a mosquito” (PRESIDENT AND FELLOWS OF HARVARD COLLEGE, priority 2018, dated 2026).
Entries after “also recorded” stand apart in the source; their conditions may differ.

Columns and labels:
P. falciparum = assay: Plasmodium falciparum infection assay in An. gambiae females after tarsal exposure to a compound-coated surface (oocyst prevalence and intensity); type: in vivo, Plasmodium falciparum (NF54) in Anopheles gambiae; settings: for effect on prevalence of P. falciparum relative to controls / reduction of oocyst prevalence relative to controls: 1 mmol/m2, 6 minutes exposure
Procedure: (§1) Compound Exposures. Compounds (ATQ, ACE, HYD, PYR, PER, Millipore-Sigma, St. Louis, MO, USA) to be tested were dissolved in a suitable, volatile vehicle (Table S1) at stock concentrations of 3-10 mg/ml (0.3-1% w/v). Working concentrations of each compound were created through serial dilutions. To generate a compound-coated surface, a volume of working solution containing a known quantity of compound was added to 1 ml excess vehicle and transferred to a 6 cm diameter glass petri dish ([…]). Treated dishes were placed on a lateral shaker and left for 4 h or overnight until evaporation of the volatile vehicle, coating the compound to the glass substrate. Control plates were treated identically using only the acetone vehicle. A translucent plastic cup was placed over the coated surface to contain mosquitoes during exposure. A flap was cut into the base of the cup to allow the introduction of mosquitoes. Plates were used for 1 d and discarded. For exposures, 15-25 mosquitoes were introduced through the cup flap using a mouth aspirator and incubated on the treated surface for 6-60 min depending on the experimental parameters. Exposure plates were agitated once during exposure to discourage resting on the untreated walls and base of the cup. After exposure, plates were transferred to a clean 17.5 cm^3 cage (Bugdorm™, Megaview Science. Co. Taiwan).
Plasmodium falciparum Infection Assays. 5-d old An. gambiae females were exposed to compounds as described above. Immediately after exposure, females were transferred to a sealed, secure infection glovebox and provided an in vitro culture P. falciparum (NF54) gametocytes (1, 2) through a custom made, glass, water-heated membrane feeder. […] At 7-9 d post infectious blood meal (pIBM), females that had blood fed were vacuum aspirated into 80% ethanol, incubated for 10 minutes at −20° C., and transferred out of the secure feeding box into PBS on ice. Midguts were dissected out in PBS and stained with 0.2% w/v mercurochrome (in ddH2O) for 17 minutes. After staining, midguts were mounted on glass microscope slides in 0.02% w/v mercurochrome, and oocyst prevalence and intensity were determined by examination at 40× air objective on an inverted compound light microscope (Olympus Corporation, Waltham, MA).
Statistical Analysis. All statistical analyses were carried out using GraphPad Prism v7.0 for MacOSX (GraphPad Software Inc., La Jolla CA, USA). For infections, differences in prevalence were analyzed by Chi^2. In experiments where both treatment groups had individuals that produced >0 oocysts, differences in median oocyst burden between groups (intensity of infection) was analyzed using a Mann-Whitney Mean Ranks test. For multiple comparisons (e.g. FIG. 3) differences in prevalence between multiple groups were determined using pair-wise Chi^2 corrected for multiple comparisons (Bonferroni). Similarly, multiple comparisons of intensity were carried out using Wilcoxon with Dunn's post hoc. To determine IC50 from dose-response data, the mean relative inhibition (ATQ exposed prevalence/Control prevalence) was calculated for each tested dose and fit with a sigmoidal curve function using non-linear regression.

An. gambiae females = assay: Survival assays of An. gambiae females after compound exposure (acute 48 h and long-term); type: in vivo, Anopheles gambiae; settings: for proportionate survival relative to controls: 1 mmol/m2, 60 minutes exposure, 48 h after exposure
Procedure: as §1
Survival Assays. To assess acute survival following exposure: 40, females were exposed (as described above) to ATQ, PYR, ACE, HYD permethrin (PER) for 1 h at a dosage of 1 mmol/m^2 for each compound. […] Immediately after exposure, each treatment group was transferred to a 500 ml paper cup and provided with glucose. At 48 h post exposure the proportion of surviving mosquitoes in each group was determined. Differences in survival between control and compound-exposed mosquitoes were detected using Chi^2 analysis. For long-term survival, ˜100 ATQ- or control-exposed females were placed in clean 17.5 cm^3 cages (Bugdorm™, Megaview Science. Co., Taiwan). Water and a 10% w/v glucose solution was provided ad libitum. Cages were checked daily for mortality, and dead mosquitos were removed and counted. Each experiment continued until all mosquitoes had died. Differences in median time-to-death between ATQ and control treatment groups were analyzed using a Log-Rank Mantell-Cox test.

[1] = tested on: susceptible An. gambiae mosquitoes; settings: 60-minute tarsal exposure; cited from earlier work
[2] = 10 μmol/m^2, 60 minutes exposure
[3] = 1 mmol/m2, 60 minutes exposure immediately prior to infection

Compound	effect on prevalence of P. falciparum relative to controls (P. falciparum)	reduction of oocyst prevalence relative to controls (P. falciparum) [%]	proportionate survival relative to controls (An. gambiae females)	further results
CCCCCCCCCCCCC1=C(OC(C)=O)C(=O)c2ccccc2C1=O [ACE, acequinocyl]	strongly reduced prevalence	64.3	1.059	–
O=C1C(O)=C([C@H]2CC[C@H](c3ccc(Cl)cc3)CC2)C(=O)c2ccccc21 [ATQ, atovaquone]	–	–	0.975	inhibition of intensity of infection compared to controls (P. falciparum; [2]): 87.5%; inhibition of prevalence of infection compared to controls (P. falciparum; [2]): 87.6%; oocyst intensity (P. falciparum; 100 μmol/m2, 6 min exposure): 0%; prevalence of infection (P. falciparum oocysts) (P. falciparum; 100 μmol/m2, 6 min exposure): 0%; oocyst intensity (P. falciparum; 1 mmol/m2, 6 min exposure): 0%; prevalence of infection (P. falciparum oocysts) (P. falciparum; 1 mmol/m2, 6 min exposure): 0%; oocyst intensity (P. falciparum; [3]): 0%; prevalence of infection (P. falciparum oocysts) (P. falciparum; [3]): 0%; IC50 of pre-infection exposure (surface concentration; prevalence of infection) (P. falciparum; 60 minutes tarsal exposure, interpolated from dose-response curve): 1.77 μmol/m^2; effect on acute or long-term survival of An. gambiae females (An. gambiae females; ATQ- vs control-exposed females, followed until death): no effect
CCCCCCCCCCOc1cc2c(O)c(C(=O)OCC)cnc2cc1OCC [DEC, decoquinate]	no detectable effect on infection; also recorded: Neither compound is capable of reducing the prevalence	–	1.084	–
CC1(C)CNC(=NN=C(/C=C/c2ccc(C(F)(F)F)cc2)/C=C/c2ccc(C(F)(F)F)cc2)NC1 [HYD, hydramethylnon]	strongly reduced prevalence	63.9	0.976	–
CCc1nc(N)nc(N)c1-c1ccc(Cl)cc1 [PYR, pyrimethamine]	–	–	1.000	–
CC1(C)C(C=C(Cl)Cl)C1C(=O)OCc1cccc(Oc2ccccc2)c1 (stereo not shown) [permethrin]	–	–	0.055	LC50 [1]: 63 μmol/m^2
